Measurements reported in the supplement of paper PMC10307832.

Assays:
Test in all cases: relative viability (nuclei count vs DMSO), 5 days (fraction); higher = more cells survive
AZ505 + Bortezomib = compound: C1CCC(CC1)N(CCNCCC2=C3C(=C(C=C2)O)NC(=O)CO3)C(=O)CCNCCC4=CC(=C(C=C4)Cl)Cl [AZ505] + CC(C)C[C@H](NC(=O)[C@H](Cc1ccccc1)NC(=O)c1cnccn1)B(O)O [Bortezomib] (partner 0.002 µM)
Summary of the method: (§1)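 A single step with final 0.05% Triton X-100, 1% formaldehyde and 1 ug/ml Hoechst fixed the cells and stained nuclei 5 days after treatment. Lung cancer cell lines in 1536-well plates had been treated by pin tool the day after seeding with one drug alone or a fixed anchor-drug dose plus five library-drug doses (not always all listed) in √10 steps, and nuclei were counted on 4× images. Relative viability is the ratio of nuclei in treated wells to nuclei in vehicle wells, taken as the median of duplicate plates.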

AZ505 + Crizotinib = compound: C1CCC(CC1)N(CCNCCC2=C3C(=C(C=C2)O)NC(=O)CO3)C(=O)CCNCCC4=CC(=C(C=C4)Cl)Cl [AZ505] + C[C@@H](Oc1cc(-c2cnn(C3CCNCC3)c2)cnc1N)c1c(Cl)ccc(F)c1Cl [Crizotinib] (partner 1 µM)
Summary of the method: as §1

Dactolisib + Bortezomib = compound: Cn1c(=O)n(-c2ccc(C(C)(C)C#N)cc2)c2c3cc(-c4cnc5ccccc5c4)ccc3ncc21 [Dactolisib] + CC(C)C[C@H](NC(=O)[C@H](Cc1ccccc1)NC(=O)c1cnccn1)B(O)O [Bortezomib] (partner 0.002 µM)
Summary of the method: as §1

Dactolisib + AZD7762 = compound: Cn1c(=O)n(-c2ccc(C(C)(C)C#N)cc2)c2c3cc(-c4cnc5ccccc5c4)ccc3ncc21 [Dactolisib] + NC(=O)Nc1cc(-c2cccc(F)c2)sc1C(=O)N[C@H]1CCCNC1 [AZD7762] (partner 0.2 µM)
Summary of the method: as §1

Cell Line	relative viability (AZ505 + Bortezomib; first compound 0.08 µM)	relative viability (AZ505 + Bortezomib; first compound 0.253 µM)	relative viability (AZ505 + Bortezomib; first compound 0.8 µM)	relative viability (AZ505 + Bortezomib; first compound 2.53 µM)	relative viability (AZ505 + Bortezomib; first compound 8 µM)	relative viability (AZ505 + Crizotinib; first compound 0.08 µM)	relative viability (AZ505 + Crizotinib; first compound 0.253 µM)	relative viability (AZ505 + Crizotinib; first compound 0.8 µM)	relative viability (AZ505 + Crizotinib; first compound 2.53 µM)	relative viability (AZ505 + Crizotinib; first compound 8 µM)	relative viability (Dactolisib + Bortezomib; first compound 0.002 µM)	relative viability (Dactolisib + Bortezomib; first compound 0.006325 µM)	relative viability (Dactolisib + Bortezomib; first compound 0.02 µM)	relative viability (Dactolisib + Bortezomib; first compound 0.06325 µM)	relative viability (Dactolisib + Bortezomib; first compound 0.2 µM)	relative viability (Dactolisib + AZD7762; first compound 0.002 µM)	relative viability (Dactolisib + AZD7762; first compound 0.006325 µM)	relative viability (Dactolisib + AZD7762; first compound 0.02 µM)	relative viability (Dactolisib + AZD7762; first compound 0.06325 µM)	relative viability (Dactolisib + AZD7762; first compound 0.2 µM)
HCC-15	0.973	1.08	1.01	0.989	1.02	0.791	0.908	0.772	0.844	0.823	0.977	0.987	0.961	0.823	0.554	1.18	1.02	1.26	1.13	0.971
HCC-44	0.865	0.883	0.879	0.915	0.86	0.748	0.772	0.804	0.773	0.791	0.932	0.84	0.968	0.535	0.516	1.03	1.03	0.951	1.07	1.14
HCC-78	0.619	0.72	0.557	0.546	0.587		0.397	0.373	0.341	0.389	0.483	0.43	0.404	0.269	0.203	0.627	0.712	0.553	0.484	0.242
NCI-H727	0.728	0.708	0.767	0.747	0.934	0.683	0.829	0.738	0.805	0.827	1.03	0.58	0.872	0.35	0.267		0.519	0.468	0.47	0.45
NCI-H2087	0.686	0.845	0.732	0.849	0.91	0.683	0.743	0.998	0.752	0.838	1.04	0.784	0.791	0.548	0.382	1.24	1.35	1.67	0.707	0.597
BEN	0.744	0.806	0.809	0.861	0.842	0.789	0.889	0.854	0.816	1.07	0.766	0.795	0.809	0.598	0.289	0.781	0.645	0.547	0.588	0.41
LCLC-103H	0.894	1.05	1.01	1.02	1.06	0.868	1.03	0.987	1.01	0.969	1.03	1.14	0.964	0.743	0.71	0.797	0.781	0.703	0.582	0.467
EKVX	0.992	0.906	0.986	1.09	0.992	0.777	1.05	0.926	0.798	1.02	1.09	0.997	1.02	0.941	0.396	0.693	0.73	0.659	0.589	0.303
LXF-289	0.875		1.02	0.975	1.02	0.738		0.812	0.788	0.762	1.07	1.03	1.07	0.971	0.648	1.14	1.13	1.19	1.14	0.862
ABC-1	0.31	0.281	0.303	0.313	0.256	1.01	1.12	1.19	1.21	1.24	0.345	0.296	0.303	0.312	0.247	0.925	0.805	0.738	0.761	0.557
NCI-H650	0.607	0.793	0.818	1.02	0.775	0.604	0.749	0.698	0.642	0.758	0.884	0.774	0.834	0.653	0.3	1.04	1.07	0.9	0.79	0.469
NCI-H2085	0.958	1.01	0.934	1.05	1.1	1.02	0.848	0.679	0.924	0.877	1.1	0.884	0.97	0.662	0.376	0.984	0.9	0.877	0.731	0.281
LC-2-ad	1	1.04	0.915	1.01	1.03	0.432	0.475	0.438	0.472	0.427	1.09		1.04	0.734	0.52	0.812	0.816	0.86	0.71	0.593
NCI-H1355	1.13	1.19	1.16	1.25	1.16	1.06	1.04	1.12	1.02	1.05	1.21	1.21	1.13	0.937	0.525	0.834	0.73	0.699	0.419	0.308
H3255	0.558	0.812	0.817	0.804	0.758	0.702	0.854	0.904	0.913	0.918	0.798	0.693	0.766	0.664	0.39	0.921	0.963	0.803	0.828	0.551
NCI-H1993	0.894	1.09	0.937	1.25	1.04	0.928	0.85	0.766	1.03	0.798	0.94	0.689	0.754	0.522	0.455	0.735	0.507	0.53	0.335	0.387

Cell Line	relative viability (AZ505 + Bortezomib; first compound 0.08 µM)	relative viability (AZ505 + Bortezomib; first compound 0.253 µM)	relative viability (AZ505 + Bortezomib; first compound 0.8 µM)	relative viability (AZ505 + Bortezomib; first compound 2.53 µM)	relative viability (AZ505 + Bortezomib; first compound 8 µM)	relative viability (AZ505 + Crizotinib; first compound 0.08 µM)	relative viability (AZ505 + Crizotinib; first compound 0.253 µM)	relative viability (AZ505 + Crizotinib; first compound 0.8 µM)	relative viability (AZ505 + Crizotinib; first compound 2.53 µM)	relative viability (AZ505 + Crizotinib; first compound 8 µM)	relative viability (Dactolisib + Bortezomib; first compound 0.002 µM)	relative viability (Dactolisib + Bortezomib; first compound 0.006325 µM)	relative viability (Dactolisib + Bortezomib; first compound 0.02 µM)	relative viability (Dactolisib + Bortezomib; first compound 0.06325 µM)	relative viability (Dactolisib + Bortezomib; first compound 0.2 µM)	relative viability (Dactolisib + AZD7762; first compound 0.002 µM)	relative viability (Dactolisib + AZD7762; first compound 0.006325 µM)	relative viability (Dactolisib + AZD7762; first compound 0.02 µM)	relative viability (Dactolisib + AZD7762; first compound 0.06325 µM)	relative viability (Dactolisib + AZD7762; first compound 0.2 µM)
NCI-H1734	0.78	0.978	0.976	0.936	0.861	0.66	0.657	0.591	0.623	0.658	0.92	0.741	0.781	0.346	0.243	0.542	0.428	0.447	0.146	0.131
HOP-62	0.911	0.82	1.01	0.839	0.945	0.849	0.853	1.03	0.964	0.88	0.884	0.867	0.518	0.41	0.252	0.513	0.403	0.657	0.261	0.198
LOU-NH91	0.46	0.508	0.536	0.527	0.453	0.713	0.723	0.722	0.778	0.72	0.526	0.502	0.49	0.458	0.43	0.753	0.734	0.69	0.575	0.533
ChaGo-K-1	0.945	0.91	1.04	1	1.13	1.17	1.04	1.12	0.958	1.15	0.977	1.07	0.861	1.04	0.755	0.913	0.845	0.811	0.877	0.814
PC-14	0.776	0.877	0.882	0.768	0.841	0.787	0.805	0.934	0.846	0.95	0.904	0.779	0.905	0.559	0.416	0.348	0.368	0.333	0.176	0.135
NCI-H1437	0.551	0.453	0.49	0.405	0.743	0.801	0.852	0.863	0.927	0.895	0.567	0.564	0.518	0.377	0.278	1.07	1.18	1.12	1.05	1.1
NCI-H460	0.945	1.24	1.04	1.09	1.11	0.78	1.08	0.898	0.784	0.782	1.28	1.11	0.984	0.106	0.0739	0.588	0.662	0.614	0.379	0.115
NCI-H1666	0.799	0.708	0.658	0.778	0.705	0.903	1.03	0.96	0.997	0.954	0.859	0.756	0.722	0.392	0.404	0.81	0.98	0.807	0.727	0.656
NCI-H1651	0.882	0.956	0.909	0.927	1.03	0.804	0.82	0.874	0.823	0.885	1.05	0.952	0.884	0.886	0.67	0.443	0.483	0.318	0.28	0.179
NCI-H1755	0.952	0.988	0.949	0.961	0.93	0.767	0.928	0.907	0.87	0.777	1.01	0.848	0.933	0.711	0.58	0.355	0.453	0.422	0.411	0.325
HARA	1.04	1.01	0.914	1.03	0.916	0.954	0.89	0.896	0.909	0.948	1.12	1.08	1.13	1.1	0.491	0.271	0.463	0.59	0.438	0.27
NCI-H596	0.963	0.847	0.756	1.19	1.03	0.922	0.495	0.799	0.972	0.985	0.939	0.989	0.908	0.769	0.357	1.21	1.03	0.946	0.774	0.396
NCI-H23	0.674		1.21	0.956	1.07	0.502		0.443	0.638	0.557	1.04	0.924	0.798	0.247	0.294	0.241	0.232	0.309	0.19	0.101
LCLC-97TM1	0.579	0.461	0.461		1.08	0.503	0.479	0.478	0.709	0.413	0.766	0.489	0.528	0.525	0.128	0.197	0.325	0.291	0.18	0.135
EPLC-272H	0.769	1.04	0.85	0.721	0.904	0.714	0.865	0.927	0.985	0.934	0.899	0.903	0.721	0.693	0.496	0.218	0.273	0.249	0.165	0.148
NCI-H1915	0.86	0.968	0.861	0.87	0.978	0.881	0.948	0.887	0.827	0.969	1.06	0.931	0.965	0.902	0.737	0.654	0.67	0.696	0.664	0.597
